Experimental data as given in publication PMC12022980, “Rational Design of PROTAC Linkers Featuring Ferrocene as a Molecular Hinge to Enable Dynamic Conformational Changes” (Journal of the American Chemical Society, 2025).

Legend:
[1] = HBD acidity NMR score (ANMR), amide NH shifts in CDCl3 vs DMSO-d6; format: physicochemical
Source text: (§1) With this premise, we performed NMR studies to quantify the HBD solvent exposure of the amide protons using the HBD Acidity NMR score (ANMR)[47] and variable temperature studies (vt-NMR).[48] To note, although vt-NMR has originally been developed and applied to the study of peptides,[49] it is, together with the ANMR value, a well-established method for studying the intramolecular hydrogen bonding (IMHB) patterns in systems such as PROTACs[10],[12],[18],[26] as well as in ferrocene structures.[29],[50]−[53]
Considering the assumed flexibility of the ferrocene moiety, we anticipated the amide protons in AS4 next to the ferrocene moiety, i.e., N(3)-H and N(4)-H, to show greater shielding effects in CDCl3 as compared to DMSO-d6, consistently with a preference for the cis conformation. In contrast, in the presence of a strong hydrogen-bond acceptor solvent such as DMSO-d6, the intercalation of polar solvent molecules is likely to disrupt the IMHB, favoring an expanded trans conformation[50] of the substituent chains (Figure 4A). An initial analysis of the ^1H NMR spectra was obtained on samples in deuterated CDCl3 and DMSO-d6. […]
The chemical shift difference between the two solvents (Δδ) can be converted into hydrogen bond acidity (ANMR) for a quantitative assessment of IMHB. […]
(§2) Standard NMR experiments were performed at 298 K, while variable-temperature NMR experiments recorded spectra across a temperature range from 298 K to 328 K allowing a sufficient temperature equilibration time (10–15 min) before signal acquisition. All NOESY spectra for conformational analysis as well as the assignment spectra in methanol-d 4 were recorded on a 500 MHz Bruker Avance III equipped with a 5 mm QCI cryogenic probe. NOESY spectra were obtained from a sample at 1.25 mM in CDCl3 and 1.25 mM in methanol-d4, recorded at 298 K, using 16 transients, 1024 points in the direct dimension and 512 points in the indirect dimension, a relaxation delay of 1.5 s, and a mixing time of 700 ms. All other spectra used for signal assignment in CDCl3 were recorded on 500 MHz Bruker Avance NEO with a BBFO SmartProbe. […]

[2] = Variable temperature NMR (vt-NMR) of amide protons in CDCl3; format: physicochemical; conditions: CDCl3, 298–328 K
Source text: as §1, with “structures.[29],[50]−[53] […]” for “structures.[29],[50]−[53]”
as §2

ANMR N(1)-H [1]: 0.16
Δδ N(1)-H [1]: 1.16 ppm
Δδ N(2)-H [1]: 0.15 ppm
temperature coefficient Δδ/ΔT N(1)-H [2]: −3.52 ppb/K
temperature coefficient Δδ/ΔT N(2)-H [2]: −1.57 ppb/K
Structure (SMILES): Cc1ncsc1-c1ccc(CNC(=O)[C@@H]2C[C@@H](O)CN2C(=O)[C@@H](NC(=O)CCCCCOCCOCCCCCC(=O)Nc2cccc3c2C(=O)N(C2CCC(=O)NC2=O)C3=O)C(C)(C)C)cc1 (some centres unmarked) [14a]
